The test deals with T1, PD-L1 (Homo sapiens, UniProt Q9NZQ7).
T1 construct: gene CD274
Put plainly: bio-layer interferometry (BLI), immobilized recombinant human PD-L1, […] global kinetic fit. It is filed as binding. A general note: BLI is a label-free optical method that tracks binding on a fibre tip over time.

Numbered stars: 1 amine (or outer) side, 2 acyl side, 3 side chain; on linkers, the order of the positions; unused ones are H or OH. Bridge positions count the residues as written; N and C are the ends. Square brackets hold non-standard residues; d marks the D form. Peptide text beside a SMILES is read from it. * marks the point of attachment. pTerphenylCO(4''-OnC5H11) = CCCCCOc1ccc(-c2ccc(-c3ccc(C(=O)*)cc3)cc2)cc1; Orn(4R-OH,5R-OH) = O=C([C@H](C[C@@H](O)[C@@H](O)N[*:3])N[*:1])[*:2]; hTyr(3S-OH,4S-OH) = N[C@H](C(=O)O)[C@H](O)[C@@H](O)c1ccc(O)cc1; Pro(3S-OH,4S-Me) = C[C@H]1CN[C@H](C(=O)O)[C@H]1O; Hyp = O=C(O)[C@@H]1C[C@@H](O)CN1

T1 sequence (Q9NZQ7 19-290): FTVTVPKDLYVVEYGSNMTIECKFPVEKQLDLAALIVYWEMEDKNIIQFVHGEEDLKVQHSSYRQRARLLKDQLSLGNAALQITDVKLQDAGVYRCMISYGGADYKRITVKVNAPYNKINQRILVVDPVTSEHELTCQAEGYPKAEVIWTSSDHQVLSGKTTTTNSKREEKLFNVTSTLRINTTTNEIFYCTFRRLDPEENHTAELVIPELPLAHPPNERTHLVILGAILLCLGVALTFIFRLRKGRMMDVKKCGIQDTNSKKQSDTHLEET

Take `CCCCCOc1ccc(-c2ccc(-c3ccc(C(=O)N[C@H]4C[C@@H](O)[C@@H](O)NC(=O)[C@@H]5[C@@H](O)[C@@H](C)CN5C(=O)[C@H]([C@@H](C)O)NC(=O)[C@H]([C@H](O)[C@@H](O)c5ccc(O)cc5)NC(=O)[C@@H]5C[C@@H](O)CN5C(=O)[C@H]([C@@H](C)O)NC4=O)cc3)cc2)cc1` [anidulafungin] ({pTerphenylCO(4''-OnC5H11)}-[Orn(4R-OH,5R-OH)]T[Hyp][hTyr(3S-OH,4S-OH)]T[Pro(3S-OH,4S-Me)]; lactam 1-C): the Kd (in general, the constant that tells how readily two partners part at equilibrium) was found to be 76.9 µM.

The record behind these values is paper PMC12388884, “Discovery of Small-Molecule PD-L1 Inhibitors via Virtual Screening and Their Immune-Mediated Anti-Tumor Effects” (Pharmaceuticals, 2025).
